Laboratory results as given in patent US20240415852A1, “ORAL CODELIVERY OF NAVITOCLAX AND Bcl2 siRNA TREATING GASTIC CANCER” (Board of Regents, The University of Texas System, priority 2023, published 2024).

What was measured:
[1] = tested on: adenocarcinoma gastric cell line (AGS); assay: Cytotoxicity / cell viability, MTT assay; assay type: cell-based; conditions: human, 24 h
Description: The cytotoxicity of the nanoparticle formulation was studied using adenocarcinoma gastric cell line (AGS). Cells were grown in F-12K media supplemented with 20% fetal bovine serum at 5% CO2 humidified atmosphere. Cells were harvested using trypsin and 1×10^4 cells with 100 μL of serum free media per well was plated in 96-well plate and incubated for 24 and 48 h. At end of time interval, media was removed and known concentrations of samples 1×PBS, Navi, GADA/Navi, GADA/Navi/Bcl2 siRNA, GADA/Bcl2 siRNA, Navi/Bcl2 siRNA, (Navi 10, 20, 30, 40, and 50 μM and Bcl2 siRNA 20, 40, 60, 80, and 100 nM) and GADA were added to the cells. The plate was then incubated for 24 h and 48 h. Cell viability was measured using MTT cell proliferation assay kit according to manufacturer's instruction. The absorbance of MTT was measured by using a SYNERGY H1 microplate reader (BioTek) at a wavelength of 570 nm and subtracted the background absorbance recorded at 630 nm.
The mitochondrial enzymes are responsible for reducing the tetrazolium salt (MTT) into purple formazan crystals which is indicator of cell viability/cytotoxicity. The therapeutic effect of formulations was carried out by quantifying the cell viability using MTT assay. […]

platelet = conditions: reported in literature; cited from earlier work

For CC1(C)CCC(c2ccc(Cl)cc2)=C(CN2CCN(c3ccc(C(=O)NS(=O)(=O)c4ccc(N[C@H](CCN5CCOCC5)CSc5ccccc5)c(S(=O)(=O)C(F)(F)F)c4)cc3)CC2)C1 [Navitoclax], the Cell viability [1] is listed as 65.2±5.32% and the “Platelet apoptosis, thrombocytopenia” value (platelet) is listed as “induced platelet apoptosis, resulting in severe thrombocytopenia”.
